Where a SMILES comes first, the peptide text is derived from it. The star is where a group is joined. Cbz = O=C(OCc1ccccc1)*
What was measured:
[1] = system: DKO cells expressing hXPC-GFP/hHR23B; experiment: XPC-GFP accumulation in living DKO cells expressing hXPC-GFP/hHR23B after exposure to agents (fluorescence microscopy); format: cell-based, mouse
Procedure: Cells stably expressing hXPC-GFP/hHR23B were rinsed with PBS, exposed to UV-C light (254 nm; Philips TUV lamp, dose as indicated in the text) and subsequently cultured at 37° C. for various time periods (as indicated in the text). XPC was detected either by immunoblot analysis or by visualization in living cells using fluorescence microscopy. A similar approach was used to study the effect of N-acetoxy-2-acetylaminofluorene (NA-AAF, final concentration 50 or 100 μM), mitomycin C (MMC, Sigma, final concentration 1.2 or 2.4 μg/ml), ionizing radiation (γ-rays from a ^137Cs source, single dose of 6 and 10 Gy), the proteasome inhibitor N-CBZ-LEU-LEU-LEU-AL (CBZ-LLL, Sigma, final concentration 5 or 10 μM), the transcription inhibitor 5,6-dichloro-1β-D-ribofuranosyl-benzimidazole (DRB, Sigma, final concentration of 100 μM, 2-3 hrs), the translation inhibitor cyclohexamide (CHX, Boehringer, final concentration 30, 50, and 100 μg/ml, 1-3 hours), heat shock (39.5 and 41° C., for 2-12 hrs), and the nuclear export inhibitor leptomycin B (LMB, Sigma, final concentration 10 ng/ml).
Immunofluorescent microscopy images were obtained with either a Leitz Aristoplan microscope equipped with epifluorescene optics and a PlanApo 63×/1.40 oil immersion lens or a Leica DMRBE microscope equipped with epifluorescene optics and a PL Fluotar 100×/1.30 oil immersion lens. For the detection of GFP-tagged proteins in the living cell, an Olympus IX70 microscope equipped with epifluorescence optics and Olympus PlanApo 60×/1.40 oil immersion lens was used. GFP images were obtained after excitation with 455-490 and long pass emission filter (>510 nm). Cy-3 images were obtained after excitation with 515-560 and long pass emission filter (580 nm).

[2] = system: CRM1/Exportin1-mediated nuclear export of XPC-GFP; experiment: Heterokaryon nuclear-cytoplasmic shuttling assay (DKO cells expressing XPC-GFP/hHR23B fused to HeLa cells); format: cell-based, mouse/human heterokaryon; settings: LMB 10 ng/ml directly after cell fusion; XPC-GFP induced by 10 J/m^2 UV-C 6 hr prior to fusion; 4 hr after fusion
Procedure: The shuttling assay using heterokaryons was performed as described (Borer et al., 1989). One day before cell fusion, DKO cells stably expressing hXCPC-GFP/hHR23B and HeLa cells were seeded in a 1:1 ratio on coverslips. Six hours prior to fusion, cells were irradiated with 10 J/m^2 UV-C or treated with 10 μM CBZ-LLL. Cell-fusion was induced (after washing with PBS) by treatment with 50% polyethylene glycol 6,000 in HANKS™ (Gibco) for 2 min followed by (3×) washing with PBS. Finally, cells were cultured in fresh medium either supplemented with or without leptomycin B (LMB, final concentration 10 ng/ml). Three to five hours after fusion, cells were fixed with 2% paraformaldehyde and immunostained with rat monoclonal anti-HA (to monitor the XPC-GFP-His6HA protein) and rabbit polyclonal anti-human ERCC1 (to distinguish human nuclei from mouse nuclei, since it specifically recognizes human ERCC1) and subsequently with appropriate secondary antibodies (see above).

## CC(C)C[C@@H](C=O)NC(=O)[C@H](CC(C)C)NC(=O)[C@H](CC(C)C)NC(=O)OCc1ccccc1 [CBZ-LLL, N-CBZ-LEU-LEU-LEU-AL] (Cbz-Leu-Leu-Leu-aldehyde)
[1]; CBZ-LLL 5 and 10 μM, after drug removal (not shown)
  reversibility of XPC-GFP accumulation: reversible upon drug removal
[1]; CBZ-LLL 5 and 10 μM, confirmed by immunoblot and anti-HA immunocytochemistry
  XPC-GFP accumulation: all cells displayed a striking XPC-GFP accumulation in time

## OC[C@H]1O[C@@H](n2cnc3cc(Cl)c(Cl)cc32)[C@H](O)[C@@H]1O [DRB, 5,6-dichloro-1β-D-ribofuranosyl-benzimidazole]
[1]; DRB 100 μM alone, no DNA damage
  induction of XPC-GFP fluorescence: No induction of XPC-GFP fluorescence was observed
[1]; preincubation with DRB (2-3 hrs) prior to UV treatment, data not shown
  UV-induced XPC-GFP accumulation: prevented UV-induced XPC-GFP accumulation

## CCC(=C/[C@H](C)C/C=C/C(C)=C/[C@@H](C)C(=O)[C@@H](C)[C@H](O)[C@@H](C)C/C(C)=C/C(=O)O)/C=C/[C@@H]1OC(=O)C=C[C@@H]1C [LMB, leptomycin B]
[2]
  exchange of nuclear XPC-GFP from mouse (DKO) nuclei to human (HeLa) nuclei: prevented this exchange

## CO[C@@]12[C@H](COC(N)=O)C3=C(C(=O)C(C)=C(N)C3=O)N1C[C@@H]1N[C@@H]12 [MMC, mitomycin C]
[1]; MMC 1.2 and 2.4 μg/ml
  XPC accumulation (hXPC-GFP fluorescence): failed to provoke detectable XPC accumulation

## CC(=O)ON(C(C)=O)c1ccc2c(c1)Cc1ccccc1-2 [NA-AAF, N-acetoxy-2-acetylaminofluorene]
[1]; NA-AAF 50 and 100 μM, within 6 to 8 hrs
  XPC accumulation (hXPC-GFP fluorescence): very potent UV-like response in all cells

## C[C@@H]1C[C@@H]([C@H](O)CC2CC(=O)NC(=O)C2)C(=O)[C@@H](C)C1 [cyclohexamide]
[1]; cyclohexamide 30 and 50 μg/ml
  XPC fluorescence: no enhanced XPC fluorescence was found

Reference: US7820374B2, “Detection methods based on HR23 protein binding molecules” (Erasmus Universiteit Rotterdam, priority 2001, dated 2010)
